Data set [1] deals with CYP2D6 (Homo sapiens, UniProt P10635). The experiment in a line: Inhibition of human CYP2D6 at 10 uM. In kind it is ADME.
Data set [2] is described as follows: Clearance in Sprague-Dawley rat at 1 mg/kg, iv. The following applies: in vivo.
For data set [3], the target named is RAC-alpha serine/threonine-protein kinase (Homo sapiens, UniProt P31749). The data set can be described thus: Inhibition of AKT1 after 55 mins.
Data set [4] in a line: in vivo. The following applies: Sprague-Dawley, rat, po, 2 mg/kg.
Data set [5] deals with T1, CYP1A2 (Homo sapiens, UniProt P05177).
T1 sequence (P05177 whole entry): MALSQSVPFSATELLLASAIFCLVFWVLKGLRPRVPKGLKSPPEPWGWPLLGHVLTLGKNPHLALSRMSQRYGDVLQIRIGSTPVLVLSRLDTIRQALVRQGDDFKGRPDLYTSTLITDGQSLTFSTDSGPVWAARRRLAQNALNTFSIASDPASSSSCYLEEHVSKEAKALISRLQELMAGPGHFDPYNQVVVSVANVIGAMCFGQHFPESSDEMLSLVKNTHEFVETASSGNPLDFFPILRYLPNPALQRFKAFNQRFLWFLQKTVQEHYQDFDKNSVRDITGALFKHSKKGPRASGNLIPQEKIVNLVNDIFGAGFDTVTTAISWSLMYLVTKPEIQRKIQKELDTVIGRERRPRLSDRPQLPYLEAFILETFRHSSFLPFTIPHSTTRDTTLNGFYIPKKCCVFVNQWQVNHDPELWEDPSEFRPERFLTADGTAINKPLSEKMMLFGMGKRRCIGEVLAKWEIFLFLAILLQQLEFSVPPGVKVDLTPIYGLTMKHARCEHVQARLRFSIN
The experiment in a line: Inhibition of human CYP1A2 at 10 uM. In kind it is ADME.

Data set [6] in a line: Half life in Sprague-Dawley rat at 1 mg/kg, iv. The following applies: in vivo.
For data set [7], the target named is Rho-associated protein kinase 2 (Homo sapiens, UniProt O75116). The experiment in a line: Inhibition of ROCK2.
The nature of data set [8]: in vivo. The following applies: Sprague-Dawley, rat, plasma, iv, 1 mg/kg.
Data set [9] can be described thus: Volume of distribution in Sprague-Dawley rat at 1 mg/kg, iv. The following applies: in vivo.
For data set [10], the target named is CYP2C9 (Homo sapiens, UniProt P11712). The data set can be described thus: Inhibition of human CYP2C9 at 10 uM. In kind it is ADME.
Data set [11] has as its target CYP3A4 (Homo sapiens, UniProt P08684). The data set can be described thus: Inhibition of human CYP3A4 at 10 uM. In kind it is ADME.
Data set [12] is described as follows: Inhibition of myosin light chain bisphosphorylation in rat A7r5 cells after 1 hr.

A value given as a limit tells only on which side of the number the result lay.

Six compounds from ChEMBL document CHEMBL1142492 (J Med Chem, 2008) can be followed below.

Broadly, the inhibition is how much of the control response was suppressed. A higher inhibition goes with a strong effect. A word on the clearance: it is the rate of elimination divided by the concentration. A word on the IC50: it is the concentration needed to halve the response being measured. High values mean lower potency, low ones higher potency. The term Cmax denotes the peak of the concentration-time curve. The term half-life denotes the time in which the quantity being followed falls by half. A higher half-life goes with slow decline. Usually AUC stands for the area under the concentration-time curve, a measure of exposure. Higher therefore signals high exposure. For orientation: Vd means a proportionality between amount in the body and measured concentration, not a real space. A high value points to wide distribution into tissue.

CYP2C9, sequence (P11712 whole entry): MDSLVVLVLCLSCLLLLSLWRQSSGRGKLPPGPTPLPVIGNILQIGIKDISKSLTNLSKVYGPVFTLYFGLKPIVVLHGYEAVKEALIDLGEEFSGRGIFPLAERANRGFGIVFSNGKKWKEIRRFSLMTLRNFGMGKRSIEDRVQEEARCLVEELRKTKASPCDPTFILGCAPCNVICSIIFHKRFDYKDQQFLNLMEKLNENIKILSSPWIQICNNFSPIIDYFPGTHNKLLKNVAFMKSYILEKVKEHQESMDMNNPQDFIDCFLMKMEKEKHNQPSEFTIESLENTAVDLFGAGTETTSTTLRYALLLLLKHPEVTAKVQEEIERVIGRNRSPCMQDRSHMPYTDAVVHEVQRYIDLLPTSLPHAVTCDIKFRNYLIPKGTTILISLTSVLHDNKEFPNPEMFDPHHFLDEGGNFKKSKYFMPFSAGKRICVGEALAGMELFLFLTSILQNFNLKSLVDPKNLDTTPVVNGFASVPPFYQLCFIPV
CYP3A4, sequence (P08684 whole entry): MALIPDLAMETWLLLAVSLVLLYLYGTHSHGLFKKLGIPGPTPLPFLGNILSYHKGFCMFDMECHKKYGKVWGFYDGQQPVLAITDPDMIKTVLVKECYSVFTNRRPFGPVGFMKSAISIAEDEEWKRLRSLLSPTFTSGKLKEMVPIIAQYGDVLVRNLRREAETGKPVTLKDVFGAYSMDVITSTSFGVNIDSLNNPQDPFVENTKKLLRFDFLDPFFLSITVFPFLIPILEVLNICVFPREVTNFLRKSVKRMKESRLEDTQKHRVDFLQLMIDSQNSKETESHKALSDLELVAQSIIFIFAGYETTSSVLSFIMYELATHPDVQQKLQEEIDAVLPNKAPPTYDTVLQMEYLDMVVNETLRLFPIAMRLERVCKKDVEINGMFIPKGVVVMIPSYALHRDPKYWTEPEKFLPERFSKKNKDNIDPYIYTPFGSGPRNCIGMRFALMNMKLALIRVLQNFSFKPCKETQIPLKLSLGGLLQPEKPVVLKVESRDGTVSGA
Rho-associated protein kinase 2, sequence (O75116 whole entry): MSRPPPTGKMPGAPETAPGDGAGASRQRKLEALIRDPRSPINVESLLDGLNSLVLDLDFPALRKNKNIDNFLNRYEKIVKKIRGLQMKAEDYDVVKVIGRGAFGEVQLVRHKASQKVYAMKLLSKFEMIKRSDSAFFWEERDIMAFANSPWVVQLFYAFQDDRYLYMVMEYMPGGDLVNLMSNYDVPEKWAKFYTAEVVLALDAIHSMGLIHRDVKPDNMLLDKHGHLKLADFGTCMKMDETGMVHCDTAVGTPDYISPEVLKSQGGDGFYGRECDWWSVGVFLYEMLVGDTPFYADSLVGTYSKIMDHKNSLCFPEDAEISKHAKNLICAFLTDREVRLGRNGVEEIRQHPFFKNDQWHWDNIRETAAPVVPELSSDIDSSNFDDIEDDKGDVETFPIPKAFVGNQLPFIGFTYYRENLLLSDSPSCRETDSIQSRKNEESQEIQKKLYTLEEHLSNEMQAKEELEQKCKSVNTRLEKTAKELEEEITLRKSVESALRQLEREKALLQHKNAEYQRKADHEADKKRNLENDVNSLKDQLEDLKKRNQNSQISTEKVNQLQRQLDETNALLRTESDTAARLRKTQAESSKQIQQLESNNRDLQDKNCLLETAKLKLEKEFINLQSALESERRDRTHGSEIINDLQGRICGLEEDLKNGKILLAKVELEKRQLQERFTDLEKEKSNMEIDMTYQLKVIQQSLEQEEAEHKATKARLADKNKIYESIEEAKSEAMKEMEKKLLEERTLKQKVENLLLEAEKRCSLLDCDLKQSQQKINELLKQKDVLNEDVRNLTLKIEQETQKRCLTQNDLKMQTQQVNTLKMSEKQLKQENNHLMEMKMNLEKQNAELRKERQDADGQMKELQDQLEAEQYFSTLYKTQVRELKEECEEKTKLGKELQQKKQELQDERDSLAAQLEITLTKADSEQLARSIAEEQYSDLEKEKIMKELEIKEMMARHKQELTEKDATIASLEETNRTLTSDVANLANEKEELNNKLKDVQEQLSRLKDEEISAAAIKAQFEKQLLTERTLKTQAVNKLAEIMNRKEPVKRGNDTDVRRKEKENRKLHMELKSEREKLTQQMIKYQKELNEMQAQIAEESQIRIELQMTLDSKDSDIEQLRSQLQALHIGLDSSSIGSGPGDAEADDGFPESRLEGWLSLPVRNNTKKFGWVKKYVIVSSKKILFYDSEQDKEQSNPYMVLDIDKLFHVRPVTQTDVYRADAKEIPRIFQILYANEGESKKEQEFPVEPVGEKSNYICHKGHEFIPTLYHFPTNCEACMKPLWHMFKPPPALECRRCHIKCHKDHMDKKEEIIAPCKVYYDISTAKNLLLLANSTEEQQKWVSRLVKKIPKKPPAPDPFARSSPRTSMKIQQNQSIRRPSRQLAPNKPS
CYP2D6, sequence (P10635 whole entry): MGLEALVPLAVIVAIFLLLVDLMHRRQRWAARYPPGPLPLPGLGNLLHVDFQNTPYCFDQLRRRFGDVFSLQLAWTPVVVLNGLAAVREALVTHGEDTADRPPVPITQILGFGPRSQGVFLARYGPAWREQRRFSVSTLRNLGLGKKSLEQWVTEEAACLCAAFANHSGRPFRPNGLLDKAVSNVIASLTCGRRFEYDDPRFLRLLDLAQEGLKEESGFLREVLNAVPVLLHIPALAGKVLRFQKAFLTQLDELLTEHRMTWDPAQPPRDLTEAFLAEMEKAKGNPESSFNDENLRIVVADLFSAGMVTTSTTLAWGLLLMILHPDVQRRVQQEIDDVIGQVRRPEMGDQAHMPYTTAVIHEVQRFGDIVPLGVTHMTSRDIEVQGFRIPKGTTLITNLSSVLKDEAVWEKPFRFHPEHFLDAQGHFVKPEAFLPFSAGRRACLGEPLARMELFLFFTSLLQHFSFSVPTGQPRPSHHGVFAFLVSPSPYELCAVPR
RAC-alpha serine/threonine-protein kinase, sequence (P31749 whole entry): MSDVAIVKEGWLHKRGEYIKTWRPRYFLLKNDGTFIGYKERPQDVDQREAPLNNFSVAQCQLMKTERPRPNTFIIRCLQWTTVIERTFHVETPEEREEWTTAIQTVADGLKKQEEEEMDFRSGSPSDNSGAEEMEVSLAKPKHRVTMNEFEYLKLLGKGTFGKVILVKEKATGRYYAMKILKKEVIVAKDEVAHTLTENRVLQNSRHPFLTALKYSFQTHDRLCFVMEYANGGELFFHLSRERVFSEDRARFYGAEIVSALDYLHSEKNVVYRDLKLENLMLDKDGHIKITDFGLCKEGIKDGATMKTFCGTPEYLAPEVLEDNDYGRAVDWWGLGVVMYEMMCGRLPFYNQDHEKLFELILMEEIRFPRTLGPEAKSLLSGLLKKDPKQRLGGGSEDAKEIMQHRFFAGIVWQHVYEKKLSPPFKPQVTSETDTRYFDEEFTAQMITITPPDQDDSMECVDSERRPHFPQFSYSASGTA

Turning to `COc1cc(-c2cn[nH]c2)ccc1NC(=O)C1COc2ccccc2O1` (stereo unspecified), the inhibition at 10 µM in [1] was found to be 79%; in [5], 92%; in data set [10] it was 93%; in [11], 36%. The compound also had a clearance in data set [2] of 11 mL/min/kg. Moreover, the IC50 in [3] was determined as 8820 nM; in [7], 3.3 nM. In data set [4], this compound registered a Cmax of 120 nM. The same compound had a half-life in [6] of 2.6 h. The compound also had an AUC in data set [8] of 4.3 µM·h. In [9], this compound registered a Vd of 1 L/kg.
With `CN(C)CCOc1cc(-c2cn[nH]c2)ccc1N`, it took 920 nM to reach half-maximal inhibition in data set [7] (IC50).
Still for that read-out and setting: the same measure for `CC(=O)Nc1ccc(-c2cn[nH]c2)cc1OCCN(C)C`: 760 nM.
Consider `O=C(Nc1nc(-c2ccncc2)cs1)C1COc2ccccc2O1` (stereo unspecified), for which the inhibition at 10 µM in [1] was 94%; in data set [5], 90%; in [10], 96%; in data set [11] it was 80%. The clearance in data set [2] came to 181 mL/min/kg. Moreover, the concentration for half-maximal inhibition (IC50) was more than 20000 nM in data set [3], 137 nM in [12] and 7.2 nM in data set [7]. The compound also had a half-life in data set [6] of 0.4 h. This compound registered an AUC in data set [8] of 0.3 µM·h. The compound also showed a Vd in data set [9] of 3.7 L/kg.
For `O=C(Nc1ccc(-c2ccncc2)cc1)C1COc2ccccc2O1` (stereo unspecified), the inhibition at 10 µM amounted to 33% in data set [1], 23% in data set [5], 64% in data set [10] and 51% in data set [11]. In data set [2], this compound gave a clearance of 161 mL/min/kg. In addition, the half-life in data set [6] is 0.5 h. This compound also showed an AUC in [8] of 0.3 µM·h. The same compound came in with a distribution volume (Vd) in data set [9] of 5.3 L/kg.
Take `O=C(Nc1ccc(-c2c[nH]cn2)cc1)C1COc2ccccc2O1` (stereo unspecified): the inhibition at 10 µM amounted to 40% in [1], 20% in data set [5], 87% in [10] and 1% in [11]. For the same compound, the clearance in [2] stood at 18 mL/min/kg. In [4], this compound registered a Cmax of 20 nM. Further, the half-life in data set [6] is 2.2 h. The area under the curve (AUC) in [8] is 2.8 µM·h. Moreover, the volume of distribution (Vd) in data set [9] worked out at 1.9 L/kg.
